Each structure is given as a SMILES string. Some results are limits rather than exact numbers.

IC50 data for 36 compounds are collected here from US11236086B2, “Substituted pyrrolopyridines as inhibitors of activin receptor-like kinase” (BLUEPRINT MEDICINES CORPORATION, priority 2017, dated 2022).

Assay [1] deals with T1, ALK2R206H (mutant ALK2, N-terminally tagged with GST) (Homo sapiens, UniProt Q04771, R206H).
T1 construct: purchased Carna Bioscience or ThermoFisher 09-148 or PV6232
T1 sequence (Q04771 21-509 R206H): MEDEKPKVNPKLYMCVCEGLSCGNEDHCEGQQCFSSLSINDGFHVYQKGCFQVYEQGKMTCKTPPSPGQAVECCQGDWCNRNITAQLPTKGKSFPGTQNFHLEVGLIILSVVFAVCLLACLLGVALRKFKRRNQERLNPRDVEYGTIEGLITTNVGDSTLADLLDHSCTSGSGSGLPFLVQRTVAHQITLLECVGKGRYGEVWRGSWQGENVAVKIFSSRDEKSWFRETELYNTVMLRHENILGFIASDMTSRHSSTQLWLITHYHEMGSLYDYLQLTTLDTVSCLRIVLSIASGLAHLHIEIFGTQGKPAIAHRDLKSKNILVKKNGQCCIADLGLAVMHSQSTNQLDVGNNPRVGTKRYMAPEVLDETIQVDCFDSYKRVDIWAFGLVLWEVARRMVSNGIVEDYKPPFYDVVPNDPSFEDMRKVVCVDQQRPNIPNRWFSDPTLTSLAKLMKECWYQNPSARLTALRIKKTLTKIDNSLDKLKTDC
Briefly: ALK binding assay (LANTHASCREEN TR-FRET competitive binding, displacement of Kinase Tracer 178). To be noted: read-out: Binding Assay (IC50 class). In outline: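 Competitive displacement of Kinase Tracer 178 (50 nM) from N-terminally GST-tagged mutant ALK2 R206H (2-5 nM) by compound, detected by TR-FRET with Eu-anti-GST antibody (4-10 nM). 30 min room temperature incubation, 1% DMSO final; normalized signal fitted to 4-parameter log dose response for IC50.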
(In TR-FRET formats the signal depends on donor and acceptor labels being close together.)

The target in the next assay is T2, human ALK2 R206H (Homo sapiens, UniProt Q04771, R206H).
T2 construct: expressed in transfected cells; host or cells: HEK293 (ATCC CRL1573), lentivirus transduction, blasticidin selection
T2 sequence (Q04771 21-509 R206H): T1 sequence (Q04771 21-509 R206H)
The assay can be described thus: Cell-based ALK2-R206H cell activity assay (Smad1-Ser463/Ser465 phosphorylation by AlphaLISA in HEK293-ALK2-R206H cells). To be noted: phospho-Smad1 AlphaLISA, read-out: Cell Line (Cell Assay, IC50 class). The method, boiled down:
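IC50 comes from a 10-point curve, scaled between DMSO and 1 μM LDN193189 controls, of lysate phospho-Smad1 (Ser463/465) measured by AlphaLISA. Compounds (top 10 μM or 1 μM, 3-fold steps, duplicates) were given 2-3 h to serum-starved HEK293 cells that stably express FLAG-tagged human ALK2 R206H.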

As usually defined, the IC50 is the point on the concentration scale where inhibition reaches its midpoint. For the compound `CCN1CCN(c2ccc(-c3cc4c(N5CCN(C(=O)C6CC6)CC5)ccnc4[nH]3)c(F)c2)CC1` [Compound 444], the half-maximal inhibitory concentration (IC50) in assay [1] was at most 10 nM; at human ALK2 R206H, at most 100 nM.

Take `CC(C)n1cc(-c2cc3c(N4CCN(C(=O)C5CC5)CC4)ccnc3[nH]2)cn1` [Compound 65]: the concentration for half-maximal inhibition (IC50) is at most 10 nM in assay [1] and at most 100 nM on human ALK2 R206H.

Turning to `N#Cc1c(-c2nc3c(s2)COCC3)[nH]c2nccc(N3CCN(C(=O)OC4CC4)CC3)c12` [Compound 395], the IC50 in assay [1] is at most 10 nM; at human ALK2 R206H, at most 100 nM.

`Cn1cc(-c2cc3c(N4CCN(C(=O)OCCC(F)(F)F)CC4)ccnc3[nH]2)cn1` [Compound 292]: the 50% inhibitory concentration (IC50) in assay [1] is at most 10 nM; on human ALK2 R206H it was 100 to 500 nM.

Turning to `Cn1cc(-c2cc3c(N4CCN(C(=O)OC5CCC5(F)F)CC4)ccnc3[nH]2)cn1` (stereo not drawn) [Compound 262], the IC50 was at most 10 nM in assay [1] and at most 100 nM at human ALK2 R206H.

As for `N#Cc1ccc(-c2cc3c(N4CCN(C(=O)OC5COC5)CC4)ccnc3[nH]2)cc1` [Compound 188], the figures for the IC50 (in assay [1]; at human ALK2 R206H) were at most 10 nM and at most 100 nM, respectively.

For `CCn1cc(-c2cc3c(N4CCN(C(=O)C5CC5)CC4)ccnc3[nH]2)cn1` [Compound 23], the IC50 in assay [1] is at most 10 nM; on human ALK2 R206H it was 100 to 500 nM.

Consider `Cn1cc(-c2cc3c(N4CCN(C(=O)O[C@H]5C[C@H](C#N)C5)CC4)ccnc3[nH]2)cn1` [Compound 202], for which the IC50 is at most 10 nM in assay [1] and at most 100 nM at human ALK2 R206H.

As for `Cc1nc(-c2[nH]c3nccc(N4CCN(C(=O)OC5CC(F)(F)C5)CC4)c3c2C#N)cn1C` [Compound 412], the half-maximal inhibitory concentration (IC50) in assay [1] was at most 10 nM; on human ALK2 R206H, at most 100 nM.

On to `CCOC(=O)N1CCN(c2ccnc3[nH]c(-c4ccc(C5(O)CCOCC5)cn4)cc23)CC1` [Compound 396], for which the half-maximal inhibitory concentration (IC50) in assay [1] was at most 10 nM; on human ALK2 R206H it was at most 100 nM.

Regarding `Cn1cc(-c2[nH]c3nccc(N4CCN(C(=O)C5CC5)CC4)c3c2Br)cn1` [Compound 320], the half-inhibitory concentration (IC50) in assay [1] was at most 10 nM; on human ALK2 R206H, 100 to 500 nM.

In the case of `CC1(c2ccc(-c3cc4c(N5CCN(C(=O)C6CC6)CC5)ccnc4[nH]3)cc2)COC1` [Compound 271], the IC50 is at most 10 nM in assay [1] and at most 100 nM on human ALK2 R206H.

For `Cn1cc(-c2cc3c(N4CCN(C(=O)C5CC(F)(F)C5)CC4)ccnc3[nH]2)cn1` [Compound 180], the figures for the half-inhibitory concentration (IC50) (in assay [1]; at human ALK2 R206H) were at most 10 nM and 100 to 500 nM, respectively.

For the compound `Cc1nc(-c2cc3c(N4CCN(C(=O)OCC(F)F)CC4)ccnc3[nH]2)cn1C` [Compound 190], the half-inhibitory concentration (IC50) in assay [1] was at most 10 nM; on human ALK2 R206H, at most 100 nM.

On to `N#Cc1c(-c2cn3c(n2)CCC3)[nH]c2nccc(N3CCN(C(=O)OC4COC4)CC3)c12` [Compound 342], for which the figures for the IC50 (in assay [1]; at human ALK2 R206H) were at most 10 nM and at most 100 nM, respectively.

Turning to `O=C(OCC(F)F)N1CCN(c2ccnc3[nH]c(-c4nc5c(s4)COCC5)c(Cl)c23)CC1` [Compound 449], the figures for the IC50 (in assay [1]; at human ALK2 R206H) were at most 10 nM and at most 100 nM, respectively.

For the compound `O=C(C1CC1)N1CCN(c2ccnc3[nH]c(-c4ccc(C5CCN(C6COC6)CC5)cc4)cc23)CC1` [Compound 451], the half-inhibitory concentration (IC50) in assay [1] was at most 10 nM; at human ALK2 R206H, at most 100 nM.

Turning to `Cn1cc(-c2[nH]c3nccc(N4CCN(C(=O)OC5COC5)CC4)c3c2F)cn1` [Compound 178], the half-inhibitory concentration (IC50) in assay [1] is at most 10 nM; on human ALK2 R206H it was 100 to 500 nM.

With `O=C(C1CC1)N1CCN(c2ccnc3[nH]c(-c4ccc(C5CCNCC5F)cc4)cc23)CC1` (stereo not drawn) [Compound 389], the IC50 is at most 10 nM in assay [1] and at most 100 nM on human ALK2 R206H.

As for `O=C(OC1COC1)N1CCN(c2ccnc3[nH]c(-c4cn(C5CCOCC5)cn4)cc23)CC1` [Compound 403], the IC50 in assay [1] is at most 10 nM; at human ALK2 R206H, at most 100 nM.

Take `O=C(OC1COC1)N1CCN(c2ccnc3[nH]c(-c4cn5c(n4)CCC5)cc23)CC1` [Compound 218]: the IC50 in assay [1] was at most 10 nM; at human ALK2 R206H, at most 100 nM.

Take `Cn1cc(-c2cc3c(N4CCN(C(=O)[C@H]5CC[C@H](O)CC5)CC4)ccnc3[nH]2)cn1` [Compound 224]: the IC50 was at most 10 nM in assay [1] and above 500 nM at human ALK2 R206H.

For `Cn1cc(-c2[nH]c3nccc(N4CCN(C(=O)O[C@H]5CCOC5)CC4)c3c2C#N)cn1` [Compound 289], the 50% inhibitory concentration (IC50) was at most 10 nM in assay [1] and at most 100 nM on human ALK2 R206H.

Consider `CC(C)COC(=O)N1CCN(c2ccnc3[nH]c(-c4cnn(C)c4)cc23)CC1` [Compound 97], for which the 50% inhibitory concentration (IC50) in assay [1] was at most 10 nM; on human ALK2 R206H it was 100 to 500 nM.

Take `Cn1cc(-c2cc3c(N4CCN(C(=O)C5CCCC5)CC4)ccnc3[nH]2)cn1` [Compound 64]: the figures for the half-maximal inhibitory concentration (IC50) (in assay [1]; on human ALK2 R206H) were at most 10 nM and 100 to 500 nM, respectively.

With `CCS(=O)(=O)c1ccc(-c2cc3c(N4CCN(C(=O)OC5COC5)CC4)ccnc3[nH]2)cc1` [Compound 436], the values for the IC50 (in assay [1]; on human ALK2 R206H) were at most 10 nM and at most 100 nM, respectively.

For `Cc1csc(-c2cc3c(N4CCN(C(=O)C5CC5)CC4)ccnc3[nH]2)n1` [Compound 35], the IC50 in assay [1] was at most 10 nM; on human ALK2 R206H, 100 to 500 nM.

Consider `Cc1nc(-c2cc3c(N4CCN(C(=O)OCC(F)F)CC4)ccnc3[nH]2)sc1C` [Compound 291], for which the half-maximal inhibitory concentration (IC50) is at most 10 nM in assay [1] and at most 100 nM at human ALK2 R206H.

Regarding `Cc1csc(-c2cc3c(N4CCN(C(=O)OC5COC5)CC4)ccnc3[nH]2)c1` [Compound 167], the 50% inhibitory concentration (IC50) in assay [1] was at most 10 nM; at human ALK2 R206H, at most 100 nM.

On to `COCCOc1ccc(-c2cc3c(N4CCN(C(=O)C5CC5)CC4)ccnc3[nH]2)cc1` [Compound 286], for which the half-maximal inhibitory concentration (IC50) was at most 10 nM in assay [1] and 100 to 500 nM at human ALK2 R206H.

`Cn1cc(-c2cc3c(N4CCN(C(=O)C5CCCCC5)CC4)ccnc3[nH]2)cn1` [Compound 134]: the figures for the half-inhibitory concentration (IC50) (in assay [1]; at human ALK2 R206H) were at most 10 nM and 100 to 500 nM, respectively.

On to `COC1(c2ccc(-c3cc4c(N5CCN(C(=O)OC6COC6)CC5)ccnc4[nH]3)nc2)CCN(C[C@@H](C)F)CC1` [Compound 479], for which the concentration for half-maximal inhibition (IC50) was at most 10 nM in assay [1] and at most 100 nM on human ALK2 R206H.

Turning to `Cn1cnc(-c2cc3c(N4CCN(C(=O)O[C@@H]5CCC5(F)F)CC4)ccnc3[nH]2)c1` [Compound 264], the IC50 in assay [1] was at most 10 nM; on human ALK2 R206H, at most 100 nM.

Consider `Cc1nc(-c2cc3c(N4CCN(C(=O)O[C@H]5CC(F)(F)C5(F)F)CC4)ccnc3[nH]2)cn1C` [Compound 432], for which the values for the 50% inhibitory concentration (IC50) (in assay [1]; at human ALK2 R206H) were at most 10 nM and at most 100 nM, respectively.

With `O=C(C1CC1)N1CCN(c2ccnc3[nH]c(-c4ccc(C5(O)CCCOC5)cc4)cc23)CC1` (stereo not drawn) [Compound 385], the half-maximal inhibitory concentration (IC50) is at most 10 nM in assay [1] and at most 100 nM on human ALK2 R206H.

Consider `O=C(C1CC1)N1CCN(c2ccnc3[nH]c(-c4cnn(C5COC5)c4)cc23)CC1` [Compound 133], for which the IC50 is at most 10 nM in assay [1] and 100 to 500 nM at human ALK2 R206H.
